How the values were obtained:
Conditions in all cases: 72 h
[1] = tested on: Caco-2; test: relative viability EC50 (midpoint between 100% and the lowest measured viability); higher = less toxic
[2] = tested on: Calu-3; test: as above
[3] = tested on: Vero E6; test: as above
[4] = tested on: U2OS; test: as above
[5] = tested on: HepG2; test: as above
[6] = tested on: Caco-2; test: drug sensitivity score (DSS) for viability; higher = more toxic; extreme values may be limits of the assay
[7] = tested on: Calu-3; test: as above
[8] = tested on: Vero E6; test: as above
[9] = tested on: U2OS; test: as above
[10] = tested on: HepG2; test: as above
[11] = tested on: Caco-2; test: cell viability relative to DMSO; higher = less toxic
[12] = tested on: Calu-3; test: as above
[13] = tested on: Vero E6; test: as above
[14] = tested on: U2OS; test: as above
[15] = tested on: HepG2; test: as above

| SMILES | relative viability EC50 [1] [µM] | relative viability EC50 [2] [µM] | relative viability EC50 [3] [µM] | relative viability EC50 [4] [µM] | relative viability EC50 [5] [µM] | drug sensitivity score [6] | drug sensitivity score [7] | drug sensitivity score [8] | drug sensitivity score [9] | drug sensitivity score [10] | cell viability ([11]; 1 nM) [%] | cell viability ([11]; 10 nM) [%] | cell viability ([11]; 100 nM) [%] | cell viability ([11]; 1000 nM) [%] | cell viability ([11]; 10000 nM) [%] | cell viability ([12]; 1 nM) [%] | cell viability ([12]; 10 nM) [%] | cell viability ([12]; 100 nM) [%] | cell viability ([12]; 1000 nM) [%] | cell viability ([12]; 10000 nM) [%] | cell viability ([13]; 1 nM) [%] | cell viability ([13]; 10 nM) [%] | cell viability ([13]; 100 nM) [%] | cell viability ([13]; 1000 nM) [%] | cell viability ([13]; 10000 nM) [%] | cell viability ([14]; 1 nM) [%] | cell viability ([14]; 10 nM) [%] | cell viability ([14]; 100 nM) [%] | cell viability ([14]; 1000 nM) [%] | cell viability ([14]; 10000 nM) [%] | cell viability ([15]; 1 nM) [%] | cell viability ([15]; 10 nM) [%] | cell viability ([15]; 100 nM) [%] | cell viability ([15]; 1000 nM) [%] | cell viability ([15]; 10000 nM) [%] |
| --- | --- | --- | --- | --- | --- | --- | --- | --- | --- | --- | --- | --- | --- | --- | --- | --- | --- | --- | --- | --- | --- | --- | --- | --- | --- | --- | --- | --- | --- | --- | --- | --- | --- | --- | --- |
| COc1ccc(NS(=O)(=O)c2ccc(I)cc2)cc1N1CCN(C)CC1 | > 10 | > 10 | > 10 | > 10 | > 10 | 0 | 0 | 0 | 0 | 0.4 | 109 | 98 | 102 | 98.5 | 93.3 | 95.6 | 94.7 | 102 | 93.3 | 101 | 103 | 107 | 102 | 100 | 92.2 | 101 | 97.7 | 102 | 99.8 | 98.2 | 108 | 104 | 100 | 99.9 | 82.6 |
| CCCOc1ccc2[nH]cc(C3=CCNCC3)c2n1 | > 10 | > 10 |  | > 10 | > 10 | 0 | 0 |  | 0 | 0 | 95.1 | 95.4 | 95.6 | 94.2 | 100 | 94.1 | 84.5 | 96.1 | 96.2 | 93.2 |  |  |  |  |  | 103 | 97.9 | 101 | 101 | 99.5 | 104 | 106 | 99.1 | 97.2 | 96.4 |
| CCCC[C@H]1C(=O)N(c2ccccc2)N(c2ccc(O)cc2)C1=O [oxyphenbutazone] | 2.41 | > 10 |  | 2.83 | 2.66 | 3.8 | 0 | 2.5 | 5.6 | 6 | 99.6 | 89.2 | 96.7 | 94.9 | 44.2 | 91.2 | 104 | 103 | 110 | 97.6 | 105 | 107 | 109 | 101 | 50.3 | 101 | 95.8 | 100 | 96 | 9.3 | 103 | 102 | 105 | 94.2 | 7.9 |
| CC(=O)N[C@H]1[C@H]([C@H](O)[C@H](O)CO)OC(C(=O)O)=C[C@@H]1NC(=N)N [zanamivir] | > 10 | > 10 | > 10 |  | > 10 | 0 | 0 | 0 |  | 0 | 96.4 | 90.9 | 101 | 101 | 106 | 93.8 | 92 | 93.2 | 91.8 | 95.1 | 94.6 | 98.4 | 90.6 | 98.7 | 109 |  |  |  |  |  | 93.4 | 95.5 | 95.7 | 110 | 107 |
| O=C(Cc1ccc(Cl)c(Cl)c1)N1CCCC[C@@H]1CN1CCCC1 | > 10 | > 10 | > 10 |  | > 10 | 0 | 0 | 0 |  | 0.4 | 85.2 | 97 | 104 | 95.5 | 102 | 100 | 105 | 92.1 | 109 | 103 | 102 | 104 | 99.5 | 105 | 98.7 |  |  |  |  |  | 95.8 | 93.5 | 99.1 | 89.8 | 83.5 |
| Cc1ccc2nc(N)[nH]c(=O)c2c1Sc1ccncc1 [nolatrexed] | > 10 | > 10 | > 10 | > 10 |  | 0.4 | 0 | 0.5 | 0 | 1.1 | 98.2 | 98.7 | 101 | 104 | 80.3 | 97.9 | 93.4 | 85.8 | 96.9 | 99.1 | 103 | 97.2 | 99.8 | 98.9 | 83.1 | 94.3 | 99.3 | 92.4 | 101 | 94.3 | 107 | 99.5 | 97.1 | 101 | 71.6 |
| COc1ccc(CC(=O)NC(/N=C(\NC#N)Nc2cccc3ncccc23)C(C)(C)C)cc1OC (centres undefined) | > 10 | > 10 | > 10 |  | > 10 | 0 | 0 | 0 |  | 0 | 101 | 97.8 | 94.1 | 101 | 99.7 | 113 | 96.5 | 95.6 | 109 | 103 | 103 | 97 | 91.1 | 96.9 | 99.8 |  |  |  |  |  | 107 | 95.7 | 93.8 | 97.5 | 106 |
| O=c1ccc2c(OCCCCOc3ccccc3)c3ccoc3cc2o1 [AS-77] | > 10 | > 10 |  | > 10 | > 10 | 0 | 0 |  | 0 | 0 | 97 | 99 | 96.6 | 105 | 89.7 | 97.5 | 92.5 | 95.8 | 102 | 98.4 |  |  |  |  |  | 98.1 | 102 | 101 | 104 | 100 | 106 | 99.4 | 98.3 | 94.4 | 90 |
| Sc1nc2ccccc2s1 [benzo[d]thiazole-2(3H)-thione] | > 10 | > 10 |  | > 10 | > 10 | 0 | 0 |  | 0 | 0 | 96.5 | 101 | 97.1 | 103 | 94.8 | 76.6 | 91.1 | 96.7 | 96.3 | 93.1 |  |  |  |  |  | 100 | 103 | 94.8 | 102 | 97.2 | 99.8 | 101 | 119 | 101 | 108 |
| COCC[n+]1c2c(n(Cc3cnccn3)c1C)C(=O)c1ccccc1C2=O [YM-155] | 0.0039 | 0.0051 |  | 0.0091 | 0.0587 | 40.1 | 39 | 4 | 37.2 | 27 | 81.5 | 27.8 | 3.8 | 1.7 | 1.7 | 83.9 | 34.4 | 3 | 0.5 | 0.4 | 90.7 | 97.4 | 87.5 | 85.2 | 52 | 100 | 44.3 | 1.5 | -0.2 | -0.1 | 103 | 102 | 21 | 3 | 0.4 |
| CCOc1ccccc1C(=O)O [2-ethoxybenzoic-acid] | > 10 | > 10 |  | > 10 | > 10 | 0 | 0 |  | 0 | 0 | 102 | 93.1 | 95.5 | 97.9 | 93.9 | 113 | 99.9 | 97.1 | 99.6 | 108 |  |  |  |  |  | 95.8 | 99.6 | 93.7 | 94.8 | 98.7 | 111 | 107 | 93.5 | 101 | 91.7 |
| O=C(Nc1ccccc1)[C@]12C[C@H]1/C(=N\O)c1ccccc1O2 [PHCCC] | > 10 | > 10 | > 10 | > 10 |  | 0 | 0 | 0 | 0 |  | 104 | 99 | 93.4 | 107 | 94.5 | 102 | 102 | 90.9 | 96.4 | 93 | 107 | 91.5 | 102 | 92.8 | 103 | 97.4 | 99.9 | 95.9 | 101 | 104 |  |  |  |  |  |
| OCCn1cc(-c2cnc3nnn(Cc4ccc5ncccc5c4)c3n2)cn1 | > 10 | > 10 | > 10 | > 10 |  | 1.8 | 0 | 0 | 0 | 1.3 | 93.7 | 100 | 97.1 | 86.2 | 79.2 | 99 | 92.2 | 93 | 93.9 | 103 | 99.7 | 105 | 97.7 | 97.7 | 96.4 | 105 | 101 | 99.3 | 95.3 | 97.1 | 102 | 93.6 | 88.8 | 97.7 | 74.9 |
| Clc1cccc(-n2nnnc2NCc2ccccc2Oc2ccccn2)c1Cl | > 10 | > 10 |  | > 10 | > 10 | 0 | 0 |  | 0 | 0 | 104 | 97.1 | 104 | 96.2 | 96.1 | 92 | 93.5 | 88 | 89.1 | 102 |  |  |  |  |  | 101 | 98.9 | 100 | 102 | 98.9 | 104 | 98.4 | 104 | 104 | 92.1 |
| CC(=O)Nc1ccccc1 [acetanilide] | > 10 | > 10 | > 10 | > 10 |  | 0 | 0 | 0 | 0 |  | 98.1 | 101 | 94.5 | 107 | 94.4 | 95 | 94.6 | 103 | 98.2 | 99.8 | 109 | 93.7 | 102 | 103 | 104 | 105 | 99 | 103 | 99.1 | 98.9 |  |  |  |  |  |
| O=C1c2ccccc2S(=O)(=O)N1CCCCN1CCN(c2ncccn2)CC1 [ipsapirone] | > 10 | > 10 | > 10 |  | > 10 | 0 | 0 | 0 |  | 0 | 104 | 90.5 | 90.7 | 98.2 | 97.8 | 106 | 93.9 | 94.3 | 99.6 | 102 | 97 | 102 | 97.2 | 91.8 | 105 |  |  |  |  |  | 96.6 | 102 | 103 | 101 | 103 |
